Calls of active or inactive are those of the source. No cut-off for these calls is given here.
Experiments:
MRP1 [1] = target: T1, MRP1 (Homo sapiens, UniProt P33527); assay: Inhibition of MRP1 (unknown origin) expressed in HEK293FlpIN cells assessed as reduction in calcein-AM efflux at 20 uM incubated for 30 mins by flow cytometric analysis relative to control; type: cell-based; details: HEK293FlpIN cells expressing MRP1, probe calcein-AM
NIH3T3 [2] = assay: Cytotoxicity against mouse NIH/3T3 cells assessed as reduction in cell viability at 20 uM after 72 hrs by MTT assay; type: cell-based; details: nih3t3, 72 h
[3] = Inhibition of P-gp (unknown origin) expressed in mouse NIH/3T3 cells assessed as reduction in rhodamine 123 efflux at 20 uM incubated for 30 mins by flow cytometric analysis relative to control; type: cell-based; details: Homo sapiens
NIH3T3 [4] = assay: Cytotoxicity against MDR1-expressing mouse NIH/3T3 cells assessed as growth inhibition at 20 uM after 72 hrs by MTT assay; type: functional, cell-based
BHK-21 [5] = assay: Cytotoxicity against wild type BHK21 cells assessed as reduction in cell viability at 20 uM after 72 hrs by MTT assay; type: cell-based, Mesocricetus auratus; details: hamster, bhk-21, 72 h
BHK-21 [6] = assay: Cytotoxicity against MRP1-expressing BHK21 cells assessed as growth inhibition at 20 uM after 72 hrs by MTT assay; type: functional; details: Mesocricetus auratus; for inhibition of growth at 20 µM: BHK-21, 72 h, read-out: GI
BCRP (ABCG2) = target: T2, BCRP (ABCG2) (Homo sapiens, UniProt Q9UNQ0); assay: Inhibition of BCRP (unknown origin) expressed in HEK293 cells assessed as reduction in mitoxantrone efflux at 20 uM incubated for 30 mins by flow cytometric analysis relative to control; type: cell-based; details: HEK293 cells expressing BCRP, probe mitoxantrone
T2 sequence (Q9UNQ0 whole entry): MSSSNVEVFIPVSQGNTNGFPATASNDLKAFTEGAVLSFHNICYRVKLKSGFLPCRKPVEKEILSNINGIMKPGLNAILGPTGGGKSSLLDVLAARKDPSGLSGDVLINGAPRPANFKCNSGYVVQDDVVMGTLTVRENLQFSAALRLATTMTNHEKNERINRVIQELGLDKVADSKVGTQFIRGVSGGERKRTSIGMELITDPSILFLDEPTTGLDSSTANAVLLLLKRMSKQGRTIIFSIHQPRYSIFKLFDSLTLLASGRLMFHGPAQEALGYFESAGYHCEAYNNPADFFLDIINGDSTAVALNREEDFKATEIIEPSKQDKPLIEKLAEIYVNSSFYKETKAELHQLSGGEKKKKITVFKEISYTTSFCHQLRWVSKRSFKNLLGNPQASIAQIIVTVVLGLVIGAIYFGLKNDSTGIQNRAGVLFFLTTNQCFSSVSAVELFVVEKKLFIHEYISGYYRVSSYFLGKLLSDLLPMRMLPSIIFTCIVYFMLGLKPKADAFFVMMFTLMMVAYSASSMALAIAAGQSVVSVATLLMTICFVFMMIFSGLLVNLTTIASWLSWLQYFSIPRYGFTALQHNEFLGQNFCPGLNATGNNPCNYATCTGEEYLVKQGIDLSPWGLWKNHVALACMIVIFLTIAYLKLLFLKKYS

BHK-21 [7] = assay: Cytotoxicity against MRP1-expressing BHK21 cells assessed as cell death after 72 hrs by MTT assay; type: functional, cell-based; details: Mesocricetus auratus, BHK-21, 72 h
MRP1 [8] = target: T1, MRP1; assay: (§1) Inhibition of MRP1 (unknown origin) expressed in BHK21 cells assessed as GSH efflux at 20 uM incubated for 3 hrs measured every 30 secs for 2 mins by GSH reductase enzyme based assay (reference value: 100%); type: cell-based; details: BHK21 cells expressing MRP1, probe GSH
BHK-21 [9] = assay: Resistance ratio of EC50 for MRP1-expressing BHK21 cells to EC50 for wild type BHK21 cells; type: functional, Mesocricetus auratus
[10] = target: Multidrug resistance-associated protein 1 (Homo sapiens, UniProt P33527); assay: as §1; type: cell-based; details: 3 h, 20 µM
Multidrug resistance-associated protein 1, sequence (P33527 whole entry): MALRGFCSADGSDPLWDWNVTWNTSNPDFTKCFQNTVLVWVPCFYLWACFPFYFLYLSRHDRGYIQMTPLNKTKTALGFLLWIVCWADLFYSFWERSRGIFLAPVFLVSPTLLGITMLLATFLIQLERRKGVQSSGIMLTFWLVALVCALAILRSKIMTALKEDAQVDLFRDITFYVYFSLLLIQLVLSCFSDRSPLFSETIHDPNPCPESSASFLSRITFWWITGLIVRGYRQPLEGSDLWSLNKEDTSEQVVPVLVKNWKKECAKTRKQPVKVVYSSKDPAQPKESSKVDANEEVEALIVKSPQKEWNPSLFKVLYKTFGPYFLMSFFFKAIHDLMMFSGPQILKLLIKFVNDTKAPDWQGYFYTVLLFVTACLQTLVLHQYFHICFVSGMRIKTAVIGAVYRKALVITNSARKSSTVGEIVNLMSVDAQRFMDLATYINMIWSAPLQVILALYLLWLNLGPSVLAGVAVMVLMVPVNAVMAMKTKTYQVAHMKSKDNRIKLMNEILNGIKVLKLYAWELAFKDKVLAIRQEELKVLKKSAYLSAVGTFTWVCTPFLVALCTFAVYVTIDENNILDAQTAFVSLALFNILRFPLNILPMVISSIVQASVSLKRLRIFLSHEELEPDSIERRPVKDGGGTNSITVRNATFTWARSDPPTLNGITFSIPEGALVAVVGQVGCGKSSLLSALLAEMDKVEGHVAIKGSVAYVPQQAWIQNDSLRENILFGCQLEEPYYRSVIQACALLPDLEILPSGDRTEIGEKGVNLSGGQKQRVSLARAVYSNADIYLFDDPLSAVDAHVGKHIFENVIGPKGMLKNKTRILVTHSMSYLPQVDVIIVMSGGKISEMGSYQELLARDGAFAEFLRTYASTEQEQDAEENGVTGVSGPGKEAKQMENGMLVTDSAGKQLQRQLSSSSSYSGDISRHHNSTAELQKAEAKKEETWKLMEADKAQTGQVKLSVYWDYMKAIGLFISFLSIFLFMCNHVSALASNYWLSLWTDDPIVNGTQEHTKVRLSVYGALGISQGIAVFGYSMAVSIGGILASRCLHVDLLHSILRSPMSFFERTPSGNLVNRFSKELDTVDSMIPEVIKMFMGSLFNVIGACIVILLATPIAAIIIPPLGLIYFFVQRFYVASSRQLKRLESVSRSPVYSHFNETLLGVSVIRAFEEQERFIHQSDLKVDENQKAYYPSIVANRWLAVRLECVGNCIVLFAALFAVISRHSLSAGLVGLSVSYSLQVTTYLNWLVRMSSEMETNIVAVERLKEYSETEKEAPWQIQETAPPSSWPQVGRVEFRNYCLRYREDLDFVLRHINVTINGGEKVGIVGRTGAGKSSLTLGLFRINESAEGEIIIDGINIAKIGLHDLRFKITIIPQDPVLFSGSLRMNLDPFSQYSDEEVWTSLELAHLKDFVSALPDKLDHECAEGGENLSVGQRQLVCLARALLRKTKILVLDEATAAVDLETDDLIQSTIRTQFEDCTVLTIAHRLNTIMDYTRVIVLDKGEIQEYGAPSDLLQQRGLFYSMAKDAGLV

T1 sequence (P33527 whole entry): as above

Row | inhibition at 0.5 h, 20 µM (MRP1 [1]) [%] | inhibition at 3 h, 20 µM (MRP1 [8]) [%] | inhibition (INH) [10] | Compound | Activity (NIH3T3 [2]) | inhibition [3] [%] | growth inhibition (GI) (NIH3T3 [4]) | Activity (BHK-21 [5]) | inhibition of growth at 20 µM (BHK-21 [6]) [%] | inhibition at 0.5 h, 20 µM (BCRP (ABCG2)) [%] | EC50 (BHK-21 [7]) [µM] | Ratio EC50 (BHK-21 [9]) | growth inhibition (GI) (BHK-21 [6])
1 | 20.3 | – | – | CC[C@H]1CN(C)[C@H]2Cc3c([nH]c4ccccc34)/C(=N/N=C\C=C\c3ccccc3)C[C@H]1[C@H]2C(=O)OC | Non-Toxic | 45.8 | Active | Non-Toxic | 90 to 98 | -0.3 | – | – | –
2 | 15.2 | – | – | CC[C@@H]1CN(C)[C@H]2Cc3c([nH]c4ccccc34)/C(=N/N=C\c3ccc[nH]3)C[C@H]1[C@H]2C(=O)OC | Non-Toxic | 4.5 | Active | – | – | 3.7 | – | – | –
3 | 35.5 | – | – | CC[C@H]1CN(C)[C@H]2Cc3c([nH]c4ccccc34)/C(=N/N=C\C3CCCC3)C[C@H]1[C@H]2C(=O)OC | Non-Toxic | 30.3 | Active | – | – | 0.8 | – | – | –
4 | 2.5 | 63 to 75 | – | CC[C@@H]1CN(C)[C@H]2Cc3c([nH]c4ccccc34)/C(=N/N=C\C(C)(C)C)C[C@H]1[C@H]2C(=O)OC | Non-Toxic | 3.1 | Active | Non-Toxic | – | 1.3 | 57 | 0.83 | Active
5 | 26.4 | 63 to 75 | – | CCC(/C=N\N=C1/C[C@@H]2[C@H](CC)CN(C)[C@@H](Cc3c1[nH]c1ccccc31)[C@@H]2C(=O)OC)CC | Non-Toxic | 2.8 | Active | Non-Toxic | – | 0.9 | 27.5 | 0.81 | Active
6 | 15.9 | 63 to 75 | – | CC[C@H]1CN(C)[C@H]2Cc3c([nH]c4ccccc34)/C(=N/N=C\C(C)(C)C)C[C@H]1[C@H]2C(=O)OC | Non-Toxic | 10.3 | Active | Non-Toxic | – | 2.4 | 32 | 0.74 | Active
7 | 30.3 | 63 to 75 | – | CCC(/C=N\N=C1/C[C@@H]2[C@@H](CC)CN(C)[C@@H](Cc3c1[nH]c1ccccc31)[C@@H]2C(=O)OC)CC | Non-Toxic | 26.5 | Active | Non-Toxic | – | 8.2 | 18 | 0.63 | Active
8 | 10 | – | Not Active | CC[C@@H]1CN(C)[C@H]2Cc3c([nH]c4ccccc34)/C(=N/N=C\C=C\c3ccccc3)C[C@H]1[C@H]2C(=O)OC | Non-Toxic | 26.7 | Active | Non-Toxic | > 90 | -2 | – | – | –
9 | 47.5 | – | – | CC[C@H]1CN(C)[C@H]2Cc3c([nH]c4ccccc34)/C(=N/N=C\c3ccc([N+](=O)[O-])cc3)C[C@H]1[C@H]2C(=O)OC | Non-Toxic | 7.5 | Active | Non-Toxic | 90 to 98 | 2.2 | – | – | –
10 | 12.8 | – | – | CC[C@H]1CN(C)[C@H]2Cc3c([nH]c4ccccc34)/C(=N/N=C\c3cccc(Br)c3)C[C@H]1[C@H]2C(=O)OC | Non-Toxic | 28.6 | Active | Non-Toxic | 90 to 98 | -3.1 | – | – | –
